The results in this text go back to patent US7335723B2, “Melanin-concentrating hormone antagonists” (priority 2001, dated 2008).

For orientation: EC50 means the concentration needed to bring the measured effect to its halfway point. Higher therefore signals a need for much substance. For orientation: IC50 means the concentration that gives 50% inhibition. Low values mean greater potency, high ones weaker potency. As usually defined, the Kb is the affinity of an antagonist, worked out from how it opposes an agonist. A lower Kb goes with higher antagonist affinity.

SMILES strings stand for the structures. Where a SMILES comes first, the peptide text is derived from it. Bridges are numbered along the chain shown (N, C = ends). [ ]: non-standard residue; d: D form. Ava = NCCCCC(=O)O

For experiment [1], the target named is T1, rat MCH-1R (Rattus norvegicus, UniProt P97639). The experiment in a line: Aequorin bioluminescence functional assay, MCH-1R agonist activity. Conditions: for MCH-1R Agonist Activation %: 293-AEQ17 cells expressing rat MCH-1R.
T1 sequence (P97639 whole entry): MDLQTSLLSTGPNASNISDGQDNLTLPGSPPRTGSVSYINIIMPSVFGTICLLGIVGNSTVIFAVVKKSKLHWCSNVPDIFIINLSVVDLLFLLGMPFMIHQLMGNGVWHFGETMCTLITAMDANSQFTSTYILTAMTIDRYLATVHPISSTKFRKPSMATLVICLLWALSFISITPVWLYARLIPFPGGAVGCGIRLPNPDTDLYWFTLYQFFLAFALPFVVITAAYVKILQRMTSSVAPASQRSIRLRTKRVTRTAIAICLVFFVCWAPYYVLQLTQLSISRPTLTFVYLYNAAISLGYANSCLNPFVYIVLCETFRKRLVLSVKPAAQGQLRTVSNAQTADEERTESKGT
Experiment [2] has as its target T2, human MCH-2R (Homo sapiens, UniProt Q969V1). The experiment in a line: Aequorin bioluminescence functional assay, MCH-2R agonist activity. Conditions: for MCH-2R Agonist Activation %: 293-AEQ17 cells expressing human MCH-2R.
The next experiment deals with human MCH-1R (Homo sapiens, UniProt Q99705). As to the kind of experiment: MCH-1R binding assay, inhibition of [125I]-human MCH binding to membranes.
Chain of human MCH-1R (Q99705 whole entry): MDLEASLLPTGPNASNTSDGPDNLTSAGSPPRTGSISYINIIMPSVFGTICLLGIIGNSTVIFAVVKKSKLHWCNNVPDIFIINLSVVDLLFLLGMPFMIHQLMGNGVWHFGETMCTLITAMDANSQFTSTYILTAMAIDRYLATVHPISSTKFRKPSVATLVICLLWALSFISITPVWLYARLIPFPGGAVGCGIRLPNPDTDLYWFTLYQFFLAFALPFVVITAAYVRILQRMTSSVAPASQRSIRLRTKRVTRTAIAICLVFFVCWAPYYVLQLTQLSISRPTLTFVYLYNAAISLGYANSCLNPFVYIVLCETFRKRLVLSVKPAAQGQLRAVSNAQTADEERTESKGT
Experiment [3] deals with T2, human MCH-2R. The experiment in a line: MCH-2R binding assay, inhibition of [125I]-human MCH binding to membranes. Also noted: expressed in transfected cells; host or cells: 293-AEQ17 (aequorin-expressing HEK-293 reporter line). Conditions: inhibition of [125I]-human MCH (Phe13, Tyr19) binding, cell membranes.
Protocol: (§1) Cell membranes were prepared on ice. Each T-75 flask was rinsed twice with 10 ml of Enzyme-free Cell Dissociation Buffer (Specialty Media, Lavallette, N.J.), and the cell monolayer was detached in an additional 10 ml of Enzyme-free Cell Dissociation Buffer by incubation at room temperature for 10 minutes. Dissociated cells were centrifuged (500×g for 10 minutes at 4° C.), resuspended in 5 ml homogenization buffer (10 mM Tris-HCl, pH 7.4, 0.01 mM Pefabloc, 10 μM phosphoramidon, 40 μg/ml bacitracin) and then homogenized using a glass homogenizer (10-15 strokes). The homogenate was centrifuged for 10 minutes (1,000×g at 4° C.). The resulting supernatant was then centrifuged at 38,700×g for 15 minutes at 4° C. Pelleted membranes were resuspended (passed through 25 gauge needle 5 times), snap-frozen on liquid nitrogen, and stored at −80° C. until use.
Bound radioligand was separated by rapid vacuum filtration (Packard Filtermate 96-well cell harvester) through GF/C filters pretreated for 1 hour with 1% polyethylenimine. After application of the membrane suspension to the filter, the filters were washed 3 times with 3 ml each of ice-cold 50 mM Tris-HCl, pH 7.4, 10 mM MgCl2, 2 mM EDTA, 0.04% Tween 20 and the bound radioactivity on the filters was quantitated by scintillation counting (TopCount device). […]
Experiment [4] concerns the target T1, rat MCH-1R. The experiment in a line: Antagonist assay, 293-AEQ17 cells expressing rat MCH-1R. The experiment is classed as cell-based. Also noted: expressed in transfected cells; host or cells: 293-AEQ17 (aequorin-expressing HEK-293 reporter line). As to conditions: for Kb: determined per Trends in Pharmacol. Sci. 14:237-239, 1993. The method, then:
Cells were grown in DMEM (high glucose) supplemented with 10% FBS (Hyclone), 500 μg/ml G418, 200 μg/ml hygromycin and 25 mM HEPES in T75 flasks.
The assay itself involved charging apoaequorin with coelenterazine cp(Molecular Probes, C-14260) and was performed as follows:
1. Confluent T75 flasks are rinsed 1× with 12 ml Hams F12 medium+300 μM glutathione+0.1% FBS.
2. The cells were charged by adding 8 ml Hams F12+0.1% FBS+300 μM glutathione+10 μM coelenterazine, incubate at 37° C. for 1 hour.
4. ECB (6 ml) is added to the flask and the cells are dissociated with a rubber-tipped scraper, centrifuged for 5 minutes at 2500 rpm and the cell pellet resuspended in 5 ml ECB. The cells are counted and diluted to 5×10^5/ml.
Binding and agonist activity at the MCH-1R and MCH-2R was determined as described in Examples 2 and 3. Antagonist IC50 was determined as described in Example 4. Kb was determined using the procedures described in Trends in Pharmacol. Sci. 14:237-239, 1993.

T2 sequence (Q969V1 whole entry): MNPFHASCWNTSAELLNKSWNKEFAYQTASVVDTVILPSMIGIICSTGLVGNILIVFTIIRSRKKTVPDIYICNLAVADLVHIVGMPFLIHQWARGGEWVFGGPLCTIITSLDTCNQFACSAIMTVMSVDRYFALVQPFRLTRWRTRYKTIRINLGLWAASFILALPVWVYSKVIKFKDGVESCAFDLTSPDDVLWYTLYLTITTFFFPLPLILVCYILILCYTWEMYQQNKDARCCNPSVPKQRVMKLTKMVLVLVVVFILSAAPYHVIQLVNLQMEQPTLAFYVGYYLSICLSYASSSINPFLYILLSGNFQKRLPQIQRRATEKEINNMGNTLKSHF
Protocol for human MCH-1R: as §1
Bound radioligand was separated by rapid vacuum filtration (Packard Filtermate 96-well cell harvester) through GF/C filters pretreated for 1 hour with 1% polyethylenimine. After application of the membrane suspension to the filter, the filters were washed 3 times with 3 ml each of ice-cold 50 mM Tris-HCl, pH 7.4, 10 mM MgCl2, 2 mM EDTA, 0.04% Tween 20 and the bound radioactivity on the filters was quantitated by scintillation counting (TopCount device).
For the SPA-based assay, WGA-PVT beads (NEN Life Sciences Products) were resuspended in Dulbecco's PBS with calcium and magnesium (500 mg beads in 4 ml PBS). […] The suspension was mixed gently for 20 minutes, 12.3 ml of assay buffer and protease inhibitors were added (final concentration given): 2 μg/ml leupeptin, 10 μM phosphoramidon, 40 μg/ml bacitracin, 5 μg/ml aprotinin, 0.1 mM Pefabloc.
Coated beads were kept on ice until use.

Consider `CSCC[C@@H]1NC(=O)[C@@H](NC(=O)[C@H](CCCNC(=N)N)NC(C)=O)CSSC[C@@H](C(N)=O)NC(=O)[C@@H]2CCCN2C(=O)[C@H](CCCNC(=N)N)NC(=O)[C@H](Cc2ccc(O)cc2)NC(=O)[C@H](C(C)C)NC(=O)[C@H](CCCNC(=N)N)NC(=O)CCCCNC(=O)CCCCNC1=O` [SEQ. ID. NO. 3] (Ac-RCM[Ava][Ava]RVYRPC-NH2; disulfide 2-11; C-terminus assumed), for which the EC50 on rat MCH-1R [1] is 587 nM; on human MCH-2R [2] it was over 10000 nM. Besides, the “MCH-1R Agonist Activation %” value on rat MCH-1R [1] was determined as 82%. The figures for the IC50 on human MCH-1R and on human MCH-2R [3] were 3.7 nM and 350 nM, respectively.
As to `CSCC[C@@H]1NC(=O)[C@@H](NC(=O)CCCCNC(=N)N)CSSC[C@@H](C(N)=O)NC(=O)CCCCNC(=O)CCCCNC(=O)[C@H](Cc2ccc(O)cc2)NC(=O)[C@H](C(C)C)NC(=O)[C@H](CCCNC(=N)N)NC(=O)CNC(=O)[C@H](CC(C)C)NC1=O` [SEQ. ID. NO. 11], at rat MCH-1R [1], the EC50 is over 10000 nM and the “MCH-1R Agonist Activation %” value was found to be 3%. For the same compound, at human MCH-2R [2], the EC50 is over 10000 nM and the “MCH-2R Agonist Activation %” value was found to be 91%. The IC50 at human MCH-1R was 3 nM. On rat MCH-1R [4], 2.9 nM corresponded to half-maximal inhibition (IC50) and the Kb stood at 1.25 nM.
Regarding `CSCC[C@@H]1NC(=O)[C@@H](NC(=O)CCCNC(=N)N)CSSC[C@@H](C(N)=O)NC(=O)CCCCNC(=O)CCCCNC(=O)[C@H](Cc2ccc(O)cc2)NC(=O)[C@H](C(C)C)NC(=O)[C@H](CCCNC(=N)N)NC(=O)CNC(=O)[C@H](CC(C)C)NC1=O` [SEQ. ID. NO. 12], at rat MCH-1R [1], the EC50 was over 10000 nM and the “MCH-1R Agonist Activation %” value is listed as 6%. Further, at human MCH-2R [2], the EC50 was over 10000 nM and the “MCH-2R Agonist Activation %” value is 14%. In addition, the IC50 at human MCH-1R came to 8 nM. At human MCH-2R [3], this compound had an IC50 of 4000 nM.
On to `CSCC[C@@H]1NC(=O)[C@@H](NC(=O)CCCCNC(=N)N)CSSC[C@@H](C(N)=O)NC(=O)CCCNC(=O)CCCNC(=O)[C@H](Cc2ccc(O)cc2)NC(=O)[C@H](C(C)C)NC(=O)[C@H](CCCNC(=N)N)NC(=O)CNC(=O)[C@H](CC(C)C)NC1=O` [SEQ. ID. NO. 13], for which, at rat MCH-1R [1], the EC50 is over 10000 nM and the “MCH-1R Agonist Activation %” value came to 3.5%. On human MCH-2R [2], the concentration giving a half-maximal response (EC50) was over 10000 nM and the “MCH-2R Agonist Activation %” value is 35%. Further, at human MCH-1R, the half-maximal inhibitory concentration (IC50) worked out at 49 nM. On rat MCH-1R [4], this compound came in with an IC50 of 6.84 nM and an antagonist equilibrium constant (Kb) of 3 nM.
